Laboratory results as given in US20220386609A1, “META-DIAMIDE INSECTICIDES” (FMC Corporation, priority 2019, published 2022).

How the values were obtained:
[1] = tested on: potato leafhopper (Empoasca fabae (Harris)); assay: Test D: control of potato leafhopper through contact and/or systemic means; assay type: in vivo; conditions: 144 h, Soleil bean plant, adults, 6 days; for mortality at 250 ppm: tested at 250 ppm; for mortality at 50 ppm: tested at 50 ppm
Experimental: (§1) Test compounds were formulated using a solution containing 10% acetone, 90% water and 300 ppm Activator 90® non-ionic surfactant (Loveland Products, Loveland, Colo., USA). The formulated compounds were applied in 1 mL of liquid through an atomizer nozzle positioned 1.27 cm (0.5 inches) above the top of each test unit. Test compounds were sprayed at the rates indicated, and each test was replicated three times.
For evaluating control of potato leafhopper (Empoasca fabae (Harris)) through contact and/or systemic means, the test unit consisted of a small open container with a 5-6-day-old Soleil bean plant (primary leaves emerged) inside. White sand was added to the top of the soil, and one of the primary leaves was excised prior to application of the test compound.
Test compounds were formulated and sprayed at 250 and/or 50 ppm. After spraying of the formulated test compound, the test units were allowed to dry for 1 hour before they were post-infested with 5 potato leafhoppers (18-to-21-day-old adults). A black, screened cap was placed on the top of the test unit, and the test units were held for 6 days in a growth chamber at 20° C. and 70% relative humidity. Each test unit was then visually assessed for insect mortality.

[2] = tested on: cotton melon aphid (Aphis gossypii (Glover)); assay: Test F: control of cotton melon aphid through contact and/or systemic means; assay type: in vivo; conditions: 144 h, tested at 250 ppm, okra plant, 6 days
Experimental: as §1
[…] This was pre-infested with 30-40 insects on a piece of leaf according to the cut-leaf method, and the soil of the test unit was covered with a layer of sand.
Test compounds were formulated and sprayed at 250 and/or 50 ppm. After spraying, the test units were maintained in a growth chamber for 6 days at 19° C. and 70% relative humidity. Each test unit was then visually assessed for insect mortality.

| Compound | mortality at 250 ppm [1] [%] | mortality at 250 ppm [2] [%] | mortality at 50 ppm [1] [%] | melting point [°C] |
| --- | --- | --- | --- | --- |
| O=C(CC(c1ccc(Cl)c(Cl)c1)C(F)(F)F)Nc1ccc(Cl)c(C(=O)Nc2ccc(F)cc2)c1 (stereo not drawn) [Compound 1, 3,4-dichloro-N-[4-chloro-3-[[(4-fluorophenyl)amino]carbonyl]phenyl]-β-(trifluoro-methyl)benzenepropanamide] | ≥ 80 | – | – | – |
| O=C(CC(c1cccc(C(F)(F)F)c1)C(F)(F)F)Nc1ccc(Cl)c(C(=O)Nc2ccc(F)cc2F)c1 (stereo not drawn) [Compound 5, N-[4-chloro-3-[[(2,4-difluorophenyl)amino]carbonyl]phenyl]-β,3-bis(trifluoromethyl)benzenepropanamide] | ≥ 80 | – | – | – |
| O=C(CC(c1ccc(Cl)c(Cl)c1)C(F)(F)F)Nc1ccc(Cl)c(C(=O)Nc2ccc(F)cc2F)c1 (stereo not drawn) [Compound 52, 3,4-dichloro-N-[4-chloro-3-[[(2,4-difluorophenyl)amino]carbonyl]phenyl]-β-(trifluoro-methyl)benzenepropanamide] | ≥ 80 | ≥ 80 | ≥ 80 | – |
| O=C(CC(c1cc(Cl)cc(Cl)c1)C(F)(F)F)Nc1ccc(Cl)c(C(=O)Nc2ccc(F)cc2F)c1 (stereo not drawn) [Compound 60, 3,5-dichloro-N-[4-chloro-3-[[(2,4-difluorophenyl)amino]carbonyl]phenyl]-β-(trifluoro-methyl)benzenepropanamide] | ≥ 80 | – | ≥ 80 | – |
| O=C(C[C@H](c1cccc(C(F)(F)F)c1)C(F)(F)F)Nc1ccc(Cl)c(C(=O)Nc2ccc(F)cc2F)c1 [Compound 103, (βR)—N-[4-chloro-3-[[(2,4-difluorophenyl)amino]carbonyl]phenyl]-β,3-bis(trisfluoromethyl)benzenepropanamide] | – | – | ≥ 80 | – |
| O=C(CC(c1ccc(F)c(Cl)c1)C(F)(F)F)Nc1ccc(Cl)c(C(=O)Nc2ccc(F)cc2F)c1 (stereo not drawn) [Compound 115, 3-chloro-N-[4-chloro-3-[[(2,4-difluorophenyl)amino]carbonyl]phenyl]-4-fluoro-β-(trifluoromethyl)benzenepropanamide] | – | – | ≥ 80 | – |
| O=C(CC(c1cccc(C(F)(F)F)c1)C(F)(F)F)Nc1ccc(Cl)c(C(=O)NCc2ccc(F)cc2F)c1 (stereo not drawn) [Compound 148, N-[4-chloro-3-[[(2,4-difluorophenyl)methylamino]carbonyl]phenyl]-β,3-bis(trifluoromethyl)benzenepropanamide] | – | – | – | 96 to 99 |
